What was measured:
[1] = system: cultured cardiac muscle cells derived from an SD rat; experiment: PDT cell lethality vs photosensitizer concentration, loading time and total dose (CCK-8); type: cell-based; conditions: for cell lethality at 2 h after irradiation: loading 0 to 120 min, 5, 10, 15 J/cm^2
Protocol: Using cultured cardiac muscle cells derived from an SD rat, the relationship of the photosensitizer concentration, the photosensitizer loading time, and the cell lethality and the laser output required to induce cell death were examined
Cultured cardiac muscle cells derived from an SD rat were purchased from Cell Garage Co., Ltd. D-MEM/F12+10% FBS was used as a medium.
2.2 to 2.3×10^5 cells/ml of cardiac muscle cells in suspension were seeded on a collagen-coated 96-well plate at 0.1 ml/well (2.2 to 2.3×10^4 cells/well) and cultured in an incubator (37° C., CO2 concentration 5%) for six to seven days.
At this time, talaporfin sodium as a photosensitizer was dissolved in a medium at 5, 15, or 30 μg/ml. Cardiac muscle cells were loaded with talaporfin sodium for 0, 30, 60, or 120 min and irradiated with a laser beam. Laser irradiation was performed using a continuous semiconductor laser beam (peak wavelength, 670.8 nm; power density, 150 mW/cm^2) on a 0.5-cm^2 irradiation field (=area of a well) at 5, 10, and 15 J/cm^2.
After laser irradiation, 0.01 ml of Cell Counting Kit-8 (Dojindo Laboratories, hereinafter referred to as CCK-8) was added to the medium in each well, the plate was incubated for 2 h, and the absorbance at 450 nm was measured to calculate the cell lethality. The cell lethality was calculated based on the absorbance without performing laser irradiation as 100%.

[2] = system: rat cardiac muscle cells in primary culture; experiment: Pulsation and cell conditions of cardiac muscle cells in primary culture after PDT; type: cell-based
Protocol: Cardiac muscle cells in primary culture were purchased in suspension and seeded on a 96-well microplate. Cells were cultured at 37° C. under 5% CO2, and cells on days 3 and 7 of culture were used. The cardiac muscle cells in primary culture were pulsatile, and pulsations among cells were synchronizing.
Cardiac muscle cells in primary culture were adjusted to a density of 2.0×10^4 cells/well. As a photosensitizer talaporfin sodium was dissolved in a medium at various concentrations and added at a concentration of 0.1 ml/well. After 1 to 2 h of loading, laser irradiation was performed, and the medium was replaced after the completion of irradiation.
At this time, a 0.5-cm^2 irradiation field (=area of well) was irradiated with a continuous semiconductor laser beam (peak wavelength, 670.8 nm) under various conditions. […]
Laser intensity: 150 mW/cm^2
Total energy density: 1, 2, 3, 5 J/cm^2
In Table 1, 1d, 2d, and 3d refer to one, two, and three days after PDT, respectively. μg refers to the photosensitizer concentration in μg/ml. Numerical values in Table 1 are (number of samples in which pulsation restarted)/(total number of samples).

## C=Cc1c(C)c2cc3nc(c(CC(=O)N[C@@H](CC(=O)O)C(=O)O)c4[nH]c(cc5nc(cc1[nH]2)C(C)=C5CC)c(C)c4C(=O)O)[C@@H](CCC(=O)O)[C@@H]3C [talaporfin sodium, mono-L-aspartyl chlorine 6]
[1]; 15 μg/ml or lower
  cell lethality at 2 h after irradiation: no marked effect was observed
[1]; 30 μg/ml, 15 J/cm^2, loading 30 min
  cell morphology immediately after laser beam irradiation: marked changes in cell morphology, such as exfoliation and shrinkage of cells, were observed
[1]; 30 μg/ml
  cell lethality at 2 h after irradiation: the cell lethality markedly increased after laser beam irradiation
[1]; loading 0, 30, 60, 120 min, FIG. 19
  cell lethality vs loading time: loading for 30 min was most effective
[2]; 5 μg (μg/ml), 1J, 1 d after PDT
  Restart of pulsation in cardiac muscle cells: (number of samples in which pulsation restarted)/(total number of samples): 4/8
[2]; 5 μg (μg/ml), 1J, 2 d after PDT
  Restart of pulsation in cardiac muscle cells: (number of samples in which pulsation restarted)/(total number of samples): 8/8
[2]; 5 μg (μg/ml), 1J, 3 d after PDT
  Restart of pulsation in cardiac muscle cells: (number of samples in which pulsation restarted)/(total number of samples): 8/8
[2]; 5 μg (μg/ml), 2J, 1 d after PDT
  Restart of pulsation in cardiac muscle cells: (number of samples in which pulsation restarted)/(total number of samples): 1/8
[2]; 5 μg (μg/ml), 2J, 2 d after PDT
  Restart of pulsation in cardiac muscle cells: (number of samples in which pulsation restarted)/(total number of samples): 8/8
[2]; 5 μg (μg/ml), 2J, 3 d after PDT
  Restart of pulsation in cardiac muscle cells: (number of samples in which pulsation restarted)/(total number of samples): 8/8
[2]; 5 μg (μg/ml), 3J, 1 d after PDT
  Restart of pulsation in cardiac muscle cells: (number of samples in which pulsation restarted)/(total number of samples): 0/8
[2]; 5 μg (μg/ml), 3J, 2 d after PDT
  Restart of pulsation in cardiac muscle cells: (number of samples in which pulsation restarted)/(total number of samples): 7/8
[2]; 5 μg (μg/ml), 3J, 3 d after PDT
  Restart of pulsation in cardiac muscle cells: (number of samples in which pulsation restarted)/(total number of samples): 8/8
[2]; 5 μg (μg/ml), 5J, 1 d after PDT
  Restart of pulsation in cardiac muscle cells: (number of samples in which pulsation restarted)/(total number of samples): 0/8
[2]; 5 μg (μg/ml), 5J, 2 d after PDT
  Restart of pulsation in cardiac muscle cells: (number of samples in which pulsation restarted)/(total number of samples): 8/8
[2]; 5 μg (μg/ml), 5J, 3 d after PDT
  Restart of pulsation in cardiac muscle cells: (number of samples in which pulsation restarted)/(total number of samples): 8/8
[2]; 10 μg (μg/ml), 1J, 1 d after PDT
  Restart of pulsation in cardiac muscle cells: (number of samples in which pulsation restarted)/(total number of samples): 0/8
[2]; 10 μg (μg/ml), 1J, 2 d after PDT
  Restart of pulsation in cardiac muscle cells: (number of samples in which pulsation restarted)/(total number of samples): 8/8
[2]; 10 μg (μg/ml), 1J, 3 d after PDT
  Restart of pulsation in cardiac muscle cells: (number of samples in which pulsation restarted)/(total number of samples): 8/8
[2]; 10 μg (μg/ml), 2J, 1 d after PDT
  Restart of pulsation in cardiac muscle cells: (number of samples in which pulsation restarted)/(total number of samples): 0/8
[2]; 10 μg (μg/ml), 2J, 2 d after PDT
  Restart of pulsation in cardiac muscle cells: (number of samples in which pulsation restarted)/(total number of samples): 7/8
[2]; 10 μg (μg/ml), 2J, 3 d after PDT
  Restart of pulsation in cardiac muscle cells: (number of samples in which pulsation restarted)/(total number of samples): 8/8
[2]; 10 μg (μg/ml), 3J, 1 d after PDT
  Restart of pulsation in cardiac muscle cells: (number of samples in which pulsation restarted)/(total number of samples): 0/8
[2]; 10 μg (μg/ml), 3J, 2 d after PDT
  Restart of pulsation in cardiac muscle cells: (number of samples in which pulsation restarted)/(total number of samples): 8/8
[2]; 10 μg (μg/ml), 3J, 3 d after PDT
  Restart of pulsation in cardiac muscle cells: (number of samples in which pulsation restarted)/(total number of samples): 8/8
[2]; 10 μg (μg/ml), 5J, 1 d after PDT
  Restart of pulsation in cardiac muscle cells: (number of samples in which pulsation restarted)/(total number of samples): 1/8
[2]; 10 μg (μg/ml), 5J, 2 d after PDT
  Restart of pulsation in cardiac muscle cells: (number of samples in which pulsation restarted)/(total number of samples): 8/8
[2]; 10 μg (μg/ml), 5J, 3 d after PDT
  Restart of pulsation in cardiac muscle cells: (number of samples in which pulsation restarted)/(total number of samples): 8/8
[2]; 10 μg/ml, 3 J/cm^2
  pulsation immediately after PDT: the pulsation stopped immediately after PDT
[2]; 10 μg/ml, 3 J/cm^2, FIG. 12
  cell conditions at one day after PDT: no damage was observed in the cell conditions
[2]; 10 μg/ml, 3 J/cm^2, see Table 1
  restart of pulsation and synchronization: the pulsation restarted, and synchronization was observed at about one to three days after experiment
[2]; 15 μg (μg/ml), 1J, 1 d after PDT
  Restart of pulsation in cardiac muscle cells: (number of samples in which pulsation restarted)/(total number of samples): 0/8
[2]; 15 μg (μg/ml), 1J, 2 d after PDT
  Restart of pulsation in cardiac muscle cells: (number of samples in which pulsation restarted)/(total number of samples): 8/8
[2]; 15 μg (μg/ml), 1J, 3 d after PDT
  Restart of pulsation in cardiac muscle cells: (number of samples in which pulsation restarted)/(total number of samples): 8/8
[2]; 15 μg (μg/ml), 2J, 1 d after PDT
  Restart of pulsation in cardiac muscle cells: (number of samples in which pulsation restarted)/(total number of samples): 0/8
[2]; 15 μg (μg/ml), 2J, 2 d after PDT
  Restart of pulsation in cardiac muscle cells: (number of samples in which pulsation restarted)/(total number of samples): 8/8
[2]; 15 μg (μg/ml), 2J, 3 d after PDT
  Restart of pulsation in cardiac muscle cells: (number of samples in which pulsation restarted)/(total number of samples): 8/8
[2]; 15 μg (μg/ml), 3J, 1 d after PDT
  Restart of pulsation in cardiac muscle cells: (number of samples in which pulsation restarted)/(total number of samples): 1/8
[2]; 15 μg (μg/ml), 3J, 2 d after PDT
  Restart of pulsation in cardiac muscle cells: (number of samples in which pulsation restarted)/(total number of samples): 8/8
[2]; 15 μg (μg/ml), 3J, 3 d after PDT
  Restart of pulsation in cardiac muscle cells: (number of samples in which pulsation restarted)/(total number of samples): 8/8
[2]; 15 μg (μg/ml), 5J, 1 d after PDT
  Restart of pulsation in cardiac muscle cells: (number of samples in which pulsation restarted)/(total number of samples): 0/8
[2]; 15 μg (μg/ml), 5J, 2 d after PDT
  Restart of pulsation in cardiac muscle cells: (number of samples in which pulsation restarted)/(total number of samples): 8/8
[2]; 15 μg (μg/ml), 5J, 3 d after PDT
  Restart of pulsation in cardiac muscle cells: (number of samples in which pulsation restarted)/(total number of samples): 8/8
[2]; 20 μg/ml, 3 J/cm^2
  restart of pulsation: The pulsation did not restart permanently
[2]; 20 μg/ml, 3 J/cm^2, FIG. 13
  cell conditions at one day after PDT: Associated cells were separated, and individual cells themselves shrank
